One molecule from US20170209579A1, “NON-INVASIVE RADIOFREQUENCY FIELD TREATMENT FOR CANCER THERAPY” (Baylor College of Medicine, priority 2014, published 2017) can be followed below.

Holding throughout (format): cell-based, human
Test [1] relates to γ-H2AX foci in Hep3B cells. Description: γ-H2AX foci in Hep3B cells (immunocytochemistry, confocal). The method, then: Approximately 50,000 cells were seeded in each well of a 12-well plate and grown on circular #1.5 cover slips (Electron Microscopy Sciences, Hatfield, Pa.). After 24 hours, cells were exposed to various treatment conditions as described herein. At the end of treatment, cells were fixed, permeabilized, blocked, labeled with primary antibody, and then with secondary antibody in consecutive steps. For confocal imaging, Fluoview—FV1000 Olympus Confocal Microscope (Center Valley, Pa.) was used.
For immunocytochemistry assay, an indirect immunofluorescence approach was used. Circular #1.5 cover slips (Electron microscopy sciences, Hatfield, Pa.) were placed in 12-well plates and sterilized using a 20-minute UV exposure. Cells from an exponentially growing culture were counted and approximately 50,000 cells were seeded in each well of a 12-well plate. Adherent sub-confluent monolayers were observed growing on the cover slip 24 hours later. At this point, cells were exposed to various treatment conditions as described herein. At the end of treatment, immunolabeling of proteins being studied was performed. Cells were fixed, permeablized, blocked, labeled with primary antibody and then with secondary antibody in consecutive steps. Between each step, cells were washed with PBS three times for 5 minutes each time on a leveled shaker at 50 RPM. Cells were fixed with 1% paraformaldehyde in PBS (w/v) for 30 minutes. Permeablization was performed using 0.3% (v/v) Triton-100 and 0.125% (w/v) CHAPS (3-[(3-Cholamidopropyl) dimethylammonio]-1-propanesulfonate) dissolved in PBS for 15 minutes. […] Primary and secondary antibodies were diluted in the blocking buffer. Incubation with primary antibody was performed over night at 4° C. Secondary antibody incubations were performed for 2 hours at room temperature. […]
(§1) The slides were sealed with a conventional nail polish hardener and stored at 4° C. until imaging. […] Exposure settings were set to maximize dynamic range initially and then kept constant across multiple samples to allow quantitative comparisons. […]

Another test relates to shMre11 Hep3B cell line. Description: Clonogenic assay, Mre11 knockdown (shMre11) Hep3B cell line. An excerpt: For generating an Mre11-knockdown cell line, GPIZ lentiviral shRNA (Open biosystems, Lafayette, Colo.) was used according to the supplied protocol. In order to generate lentivirus, Hep3B cells were transfected in separate experiments with three random clones from a,shRNA library against Mre11 or a control shRNA together with a packaging plasmid (Trans-lentiviral packaging system, Open biosystems, Lafayette, Colo.) using lipofectamine 2000 (Invitrogen, Life technologies, Grand Island, N.Y.). Approximately 72 hours later, cells were observed under a microscope to express GFP, which is a marker of expression of shRNA against Mre11. Relative mre11 knockdown was confirmed by western blot analysis.
Clonogenic assay estimates single-cell reproductive viability by measuring the ability of a single cell to form a colony of 50 cells or more. Clonogenic assay in this study was performed as described previously (Franken et al., 2006). Briefly, cancer cells from an exponentially growing, sub-confluent culture were trypsinized and harvested. Approximately 200 cells were counted and plated in each well of a 6-well plate. Approximately 12 hours later, the cells were adherent and treatment conditions were introduced as described herein. […] The number of colonies in each well was counted using a colony counting grid. […]

In another test the test system is Mre11. Description: Colocalization of Mre11 with γ-H2AX foci at gemcitabine-stalled replication forks. The conditions noted are these: Hep3B.
Excerpt: FIGS. 15A-15D provide inhibition of Mre11 and Rad51 recruitment at gemcitabine-stalled replication forks by hyperthermia. (15A) Hep3B cells were exposed to hyperthermia and/or gemcitabine. (15B) and (15C) Mre11 and Rad51 were recruited at gemcitabine-stalled replication forks. […] Scale bar=10 μm. (15D) Quantification of data from colocalization experiments. Data are mean Pearson correlation (a.u.) and error bars represent the SD from three independent experiments with 10 replicates each (*P<0.05, **P<0.01). Gem=Gemcitabine; HT=Hyperthermia; N/A=not applicable, i.e., in hyperthermia treated cells BrdU staining is not detected as distinct foci and therefore correlation could not be quantified; ns=not significant, by the Student unpaired two-sided t test in comparison with gemcitabine alone group. Also, see FIGS. 22-24. […]
For immunocytochemistry assay, an indirect immunofluorescence approach was used. […] Cells from an exponentially growing culture were counted and approximately 50,000 cells were seeded in each well of a 12-well plate. […]
as §1

As to `Nc1ccn([C@@H]2O[C@H](CO)[C@@H](O)C2(F)F)c(=O)n1` [gemcitabine, 2′,2′-difluoro 2′-deoxycytidine], in test [1] (gemcitabine 100 nM 24 hours, last two hours 42.5° C.), the “persistence of γ-H2AX positive cells, gemcitabine and hyperthermia versus either alone” value is reported as “persisted for a longer duration”. Moreover, the results for the “relative mean (±SD) γ-H2AX pixels per cell” value in test [1] (gemcitabine alone) and in test [1] (hyperthermia immediately followed by gemcitabine) were 1.0±0.26 and 1.0±0.20, respectively. Also, the “sensitivity to gemcitabine, shMre11 versus shControl cell line” value in the test on shMre11 Hep3B cell line (clonogenic survival) is on record as “more sensitive to gemcitabine”. Besides, the “thermal enhancement of gemcitabine toxicity” value with shMre11 Hep3B cell line (shControl versus shMre11 cells) is reported as “noted for shControl but not shMre11 cells”. Besides, the “mean Pearson correlation, Mre11 with γ-H2AX foci” value with Mre11 (gemcitabine alone (10 μg/ml)) stood at 0.37; in the test with Mre11 (hyperthermia 42.5° C. 75 minutes then gemcitabine 10 μg/ml), 0.23.
